Laboratory results: patent publication US20250249013A1, “COMBINATION METABOLIC-EPIGENETIC TREATMENT FOR EARLY LUNG CANCER” (THE REGENTS OF THE UNIVERSITY OF CALIFORNIA, priority 2022, published 2025)

Key:
[1] = test system: long non-coding RNA HIFAL; assay: Expression of HIFAL in low glucose with αKG; type: cell-based; details: cell line not stated (Fig. EV5F-G)
Experimental: (§1) All αKG rescue experiments were conducted using 10 mM alpha-ketoglutarate (α-KG; Sigma) and α-Mannitol (Sigma) as osmotic control.
(§2) cDNA was prepared using 1 μg of RNA with SuperScript IV Reverse Transcriptase (Invitrogen). SYBR green-based RT-PCR kit (Biorad) was performed using human and mouse primers (See Table EV11). mRNA levels were normalized to GAPDH (ΔCt=Ctgene of interest-Ct GAPDH) and presented as relative mRNA expression (ΔΔCt=2-(ΔCtsample-ΔCtcontrol)). All primers were designed by NCBI Primer-BLAST and purchased from Integrated DNA Technologies.

A549 cells = assay: αKG rescue in low glucose, western blot and RT-PCR; type: cell-based, human; details: A549, 2 hours in low glucose, αKG
Experimental: (§3) Human lung cancer A549 (CCL-185) and NCI-H358 (CRL-5807) cells lines were purchased from American Type Culture Collection (ATCC, Manassas, VA). Cells were maintained in culture according to manufacturer protocol using Roswell Park Memorial Institute (RPMI) 1640 medium (Corning, Cat. #10-040CV) supplemented with 10% FBS and 5% 1× Pen-Strep and kept in 37° C. and 5% of CO2. Murine 2953A cell line was established in our lab from a KP lung tumor by tissue dissociation. This cell line was maintained in culture in Dulbecco's modified Eagle Medium (DMEM) medium (Corning, Cat. #10-017CV) with 5% FBS and 5% 1× Pen-Strep.
(§4) All experiments in cell lines were performed in biological triplicate. Cells were seeded at same confluence and grown for 5 days (and for some experiments overnight or up to 9 days or 30 days, as indicated in the figures and text) in different concentration of glucose: high (20 mM), low (1 mM) and for some experiments medium (5 mM), as indicated. We used mediums with glutamine and without glucose: RPMI (Corning Cat. #10-043CV) for A549 and NCI-H358 cells, DMEM (ThermoScientific Cat. #11566025) for 2953A cells, supplemented with 10% FBS, 5% of 1× Pen-Strep and complemented with D-Glucose to the desired final concentration, as indicated in the figures.
as §1
(§5) For total protein extraction, cells were harvested, washed twice with ice-cold PBS-EDTA (0.5 mm EDTA), lysed using RIPA buffer (50 mM Tris-HCl pH 7.6, 150 mM NaCl, 0.1% SDS, 0.5% C24H39NaO4, 1% NP-40, 2 mm EDTA, 50 mm NaF) for 15 min on ice and centrifuged at 13,000 rpm for 30 min at +4° C. The resulting protein extracts were quantified using BCA protein assay followed by analysis by SDS-PAGE and Western blotting.
(§6) Histones was extracted from A549, NCI-H358 and 2953A cell lines using the Histone extraction kit (Abcam) according to manufacturer instructions.
(§7) SDS-PAGE and Western blotting analyses were performed using standard protocols. For antibodies information, see Reagents and Tools Table. Western blot images were detected by iBright Imaging Systems (Thermo Fisher Scientific). The protein detected was normalized to Actin or H3 total antibodies, this last in case of histonic extract. Each immunodetection derived from the same membrane was performed with the same exposure times according to the manufacture's antibody guidelines and was cropped only for presentation purposes; this is indicated by a dotted line.
(§8) Total RNA was extracted from A549, NCI-H358 and 2953A by using TRI Reagent Solution (Applied Biosystem), according to manufacturer instruction. RNA concertation was assayed by Nanodrop 3000 spectrophotometer (Thermo Fisher Scientific). Then, 1 μg of RNA was treated with DNase I (Thermo Fisher Scientific) and used for cDNA preparation.
as §2

NCI-H358 cells = assay: αKG rescue in low glucose, western blot and RT-PCR; type: cell-based, human; details: NCI-H358, 2 hours in low glucose, αKG
Experimental: as §3, §4, §1, §5, §6, §7, §8, §2

MCF7 = assay: αKG rescue of FoxA2 in low glucose, western blot; type: cell-based, human; details: MCF7 breast cancer cells, low glucose 5 days
Experimental: (§9) For the glutamine deprivation experiment, A549 and NCI-H358 cell lines were also seeded and grown up to 5 days in DMEM without glutamine and glucose (Corning Cat. #17-207CV) and complemented with L-glutamine (GlutaMAX CTS, Gibco) to a final concentration of either 6 mM (high glutamine) or 2 mM (low glutamine) and D-Glucose to a final concentration of either 10 mM (high glucose) or 1 mM (low glucose). Finally, breast cancer (MCF7) and pancreatic cancer (PANC1) cell lines were purchased from ATCC and were seeded and grown up to 5 days in RPM11640 complemented with D-Glucose to a final concentration of either 20 mM or 1 mM.
as §1, §7

PANC1 = assay: αKG rescue of FoxA2 in low glucose, western blot; type: cell-based, human; details: PANC1 pancreas cancer cells, low glucose 5 days
Experimental: as §9, §1, §7

KP mice carrying LUADs [2] = assay: KP mice treated with empagliflozin, ex vivo BLI, then tail vein re-injection of sorted tumor cells in syngeneic mice; design: species or system mouse
Experimental: For our studies on the investigation of cell aggressiveness due to the glucose deprivation, we used syngeneic FVB mice. Two experiments were performed, in biological duplicate.
In the second experiment (FIG. 2G-J), KP mice injected transthoracically with AdenoCre were treated for 3 weeks with either placebo (n=3) or empagliflozin (n=3), and sacrificed for lung collection. Tumors were identified in the murine lungs by ex vivo bioluminescence and dissociated. Tumor single cells were resuspended in cold PBS followed by magnetic beads sorting (Miltenyi Biotec) to isolate the Epcam-positive epithelial cells. Finally, sorted tumor cells were injected by tail vein inoculation (1,000,000 cells/mouse) into syngeneic mice (n=6 per group). Tumor burden was measured by bioluminescence until 13 weeks after inoculation.

KP mice carrying LUADs [3] = assay: KP mice treated with empagliflozin for 4 weeks: RT-PCR on lung tumors; type: in vivo, mouse; details: vs placebo
Experimental: (§10) Lung tumors were induced by intranasal administration of Adeno-Cre (purchased from University of Iowa Viral Vector Core) as previously described (Scafoglio et al., 2018), or by transthoracic injection of Adeno-Cre in KPluc mice. All treatment trials were performed 2 weeks after tumor induction, and the results of biological duplicates were pooled for statistical analysis. In all trials, mice were assigned to therapeutic groups so that there were no significant differences in baseline tumor burden, age, sex, or weight among the different groups.
In the trial for assessment of tumor differentiation by RT-PCR (FIGS. 1F and 6C) mice (n=3) received intranasal AdenoCre and treatment with either placebo (0.5% hypromellose-methyl cellulose) or empagliflozin (10 mg/Kg/d by oral gavage) for 4 weeks, followed by tumor collection and RNA extraction. RT-PCR was performed in technical triplicates, yielding a total of 9 experimental points per group.
as §8, §2

KP mice carrying LUADs [4] = assay: KP mice treated with empagliflozin for 6 weeks: lung histology (H&E) and IHC; type: in vivo, mouse
Experimental: as §10
In the trial for assessment of tumor differentiation by immunohistochemistry (FIG. 1A-E, 6L-M, and EV1A-C) lung tumors were induced by intranasal administration of Adeno-Cre. After tumor induction, mice (n=11 for placebo and 13 for empagliflozin group) were treated with either placebo (DMSO 5%, PEG 30%, Tween80 10%) or empagliflozin (10 mg/Kg/d by oral gavage) for 6 weeks and then sacrificed for lung collection and fixation in formalin.
For the GEMMs, the mouse lungs were collected and inflated with 10% formalin in phosphate-buffered saline. After 24 hours, formalin was replaced to 70% ethanol. All tissues were paraffin-embedded and sliced into […] sections in the Translational Pathology Core Laboratory (TPCL) at UCLA.
For IHC staining, the slides were deparaffinized by overnight incubation at 65° C., followed by rehydration by serial passages in xylenes (three washes of 5 min in 100% xylenes) and decreasing concentrations of ethanol (two washes in 100% ethanol, two washes in 95%, one wash in 80%, one wash in 70%, and one wash in water). Antigen retrieval was performed for 23 min in AR6 (pH 6.0) buffer.
Blocking was performed with 5% goat serum for 1 hour at room temperature, followed by incubation with primary antibodies overnight at 4° C. Incubation with biotin-labeled secondary antibody was performed at room temperature for 1 hour, followed by incubation with avidin-biotin peroxidase complex and ImmPACT 3,3′-diaminobenzidine (DAB). Counterstain was performed with Harris' haematoxylin diluted 1:5 in water, followed by […] step and mounting slide. After the staining, digital images of the slides were obtained with an Aperio ScanScope slide scanner (Leica Biosystems). The quantification was performed using the QPath software. Briefly, regions of interests were drawn blindly in each slide to include each tumor present in a whole-lung section, followed by cell detection and quantification of the DAB signal using a constant threshold for all samples in the same experiment. Staining intensity in each cell was classified as negative (0), weak (1), median (2), or strong (3). The results were expressed as H score.
QuPath (Bankhead et al, 2017) was used for signal quantification in IHC staining. It was expressed as H score. Kaplan-Meier curves were performed with Kaplan-Meir Plotter tool (Gyorffy, 2021), using the lung cancer section. For the selected genes only, the best probe was used. All dataset available were used as cohort. For Kaplan-Meier plot performed using multiple genes, the option “use mean expression of selected genes” was set.

KP mice carrying LUADs [5] = assay: Combination treatment trial in KP mice, tumor burden by bioluminescence imaging; type: in vivo, mouse; details: 6 weeks from week 2, empagliflozin 10 mg/kg/d, tazemetostat 125 mg/kg/bid, oral gavage
Experimental: as §10
In the combination treatment trial (FIG. 3F-G), mice received the first BLI measurement two weeks post-AdenoCre administration for measurement of the baseline tumor burden. Four therapeutic groups were established as follows: (i) Placebo (n=11), receiving oral gavage of vehicle (DMSO 5%, PEG 30%, Tween80 10%); (ii) SGLT2 inhibitor Empaglifozin (10 mg/Kg/d, n=13); (iii) EZH2 inhibitor Tazemetostat (125 mg/Kg/bid, n=10); (iiii) Empaglifozin and Tazemetosat (n=19). Each group received bi-daily administration by oral gavage.

KP mice carrying LUADs [6] = assay: ELISA for H3K27me3 in KP tumors after empagliflozin; type: in vivo, mouse; details: transthoracic AdenoCre, empagliflozin for 1 week, vs placebo
Experimental: For the measurement of in vivo HeK27 trimethylation (FIG. 3B), mice (n=4 per group) received transthoracic adenoCre and were treated for 3 weeks with either placebo (0.5% hypromellose-methyl cellulose) or empagliflozin (10 mg/Kg/d by oral gavage) followed by lung collection and histone extraction for ELISA assay.
The levels of trimethylation on H3K27me3 in tumors treated with empaglifozin were detected by ELISA kits (Active Motif) according to the manufacturer's instructions. The experiment was carried out with 4 replicates for each group. After tumor collecting, histone extraction was performed.
We used H3K27me3 and H3 total antibodies for plate coating. The absorbance was detected by Varioskan Lux (Thermo Fisher Scientific). The H3K27me3 levels were normalized to H3 total and presented as optical densitometry (O. D.) 450 nm of a ratio of H3K27me3/H3.

[7] = KP tumors week 6, empagliflozin 4 weeks
[8] = empagliflozin 10 mg/kg/d, 6 weeks, vs placebo

O=C(O)CCC(=O)C(=O)O [αKG, alpha-ketoglutarate] was tested, and the “activation of HIFAL in low glucose” value [1] was “completely rescued”, the “activation of HIF1α after short-time glucose deprivation, western blot” value (A549 cells) was “rescued” and the “activation of HIF1α after short-time glucose deprivation, western blot” value (NCI-H358 cells) was “rescued”. For the same compound, the “low glucose-induced FoxA2 down-regulation, western blot” value (MCF7) was “rescued” and the “low glucose-induced FoxA2 down-regulation, western blot” value (PANC1) was “rescued”.

OC[C@H]1O[C@@H](c2ccc(Cl)c(Cc3ccc(O[C@H]4CCOC4)cc3)c2)[C@H](O)[C@@H](O)[C@@H]1O [empagliflozin] was tested, and the “tumor burden, ex vivo BLI” value (KP mice carrying LUADs [2]; KP mice, empagliflozin week 2 to week 5 after transthoracic AdenoCre, vs placebo) was “significantly reduced”, the “tumors formed after re-injection of treated tumor cells in syngeneic mice, BLI” value (KP mice carrying LUADs [2]; same number of sorted epithelial cells by tail vein, BLI at week 13, vs placebo group) was “formed larger tumors than the placebo group” and the “HIF1α RNA levels, RT-PCR” value (KP mice carrying LUADs [3]; KP murine tumors, empagliflozin 4 weeks) was “significant up-regulation”. The “surfactant protein C (SpC) expression, qPCR” value (KP mice carrying LUADs [3]; KP tumors collected week 6 post-induction, empagliflozin 10 mg/kg/d 4 weeks) was “significant reduction”, the “FoxA2 expression, qPCR” value (KP mice carrying LUADs [3]; [7]) was “significant reduction” and the “FoxJ1 expression (ciliated cell marker), qPCR” value (KP mice carrying LUADs [3]; [7]) was “reduced expression”. The “HmgA2 expression, qPCR” value (KP mice carrying LUADs [3]; [7]) was “increase”, the “Pdpn expression (type I alveolar cell marker), qPCR” value (KP mice carrying LUADs [3]; [7]) was “reduced expression” and the “Scgb3A2 expression (Clara cell marker), qPCR” value (KP mice carrying LUADs [3]; [7]) was “reduced expression”. For the same compound, the “Ttf1 expression, qPCR” value (KP mice carrying LUADs [3]; [7]) was “significant reduction”, the “differentiation of lung lesions, visual inspection of H&E staining” value (KP mice carrying LUADs [4]; empagliflozin 10 mg/kg/d oral gavage, week 2 to week 8 post-AdenoCre, vs placebo) was “more poorly differentiated” and the “clear cell component of tumors” value (KP mice carrying LUADs [4]; empagliflozin 10 mg/kg/d, 6 weeks, completely absent from placebo tumors) was “some of the tumors in the empagliflozin group had a clear cell component”. The “E-cadherin IHC signal (H score)” value (KP mice carrying LUADs [4]; [8]) was “significant down-regulation”, the “FoxA2 IHC signal (H score)” value (KP mice carrying LUADs [4]; [8]) was “significant reduction” and the “Ttf-1 IHC signal (H score)” value (KP mice carrying LUADs [4]; [8]) was “significant reduction”. For the same compound, the “micropapillary component of murine tumors, pathological quantification” value (KP mice carrying LUADs [4]; [8]) was “increasing”, the “solid component of murine tumors, pathological quantification” value (KP mice carrying LUADs [4]; [8]) was “significantly reducing” and the “tumor burden by bioluminescence imaging, compared with placebo” value (KP mice carrying LUADs [5]) was “significantly reduced”. For the same compound, the “tri-methylation on H3K27 (H3K27me3 over total H3), ELISA” value (KP mice carrying LUADs [6]) was “significant increase”.
